Data: patent US20110275644A1, “BIOLOGICAL MARKERS PREDICTIVE OF ANTI-CANCER RESPONSE TO INSULIN-LIKE GROWTH FACTOR-1 RECEPTOR KINASE INHIBITORS” (priority 2010, published 2011)

Columns and labels:
[1] = system: MDAH-2774 OvCa tumor cells; assay: growth inhibition assay (Cell Titer-Glo); type: cell-based, human
Text: Cell Lines and Culture. Human cancer cell lines, were obtained from American Type Culture Collection (ATCC, Manassas, Va.), or the following additional indicated sources, and cultured in media as described. Tumor types are also indicated: H295R (adrenocortical carcinoma; ATCC), NCI-[…], NCI-[…], SW1573 (NSCLC; ATCC), […], BxPC3 (pancreatic; ATCC), OVCAR5 (ovarian; NCI;), MDAH-2774 (ovarian; ATCC), Igrov1 (ovarian; NCI), GEO (colon; Roswell Park Cancer Institute (RPCC)), HT-29 (colon; ATCC), RKO (colon; ATCC), […], 8226 (myeloma; ATCC), H929 (myeloma; ATCC), U266 (myeloma; ATCC), SKES1 (Ewings sarcoma; ATCC), RDES (Ewings sarcoma; ATCC), RD (rhabdomyosarcoma; ATCC), DU4475 (breast; ATCC), SKNAS (neuroblastoma; ATCC), 2650 (nasal SCC; ATCC), OVCAR4 (ovarian; NCI), A673 (Ewings sarcoma; ATCC), BT474 (breast; ATCC), 1386 (oral SCC; MSKCC, NY), 1186 (SCCHN; MSKCC, NY), Colo205 (colon; ATCC), HCT-15 (colon; ATCC), Fadu (oral SCC; ATCC), SKBR3 (breast; ATCC), 1483 (HNSCC; MSKCC, NY), HSC-2 (HNSCC; RIKEN BioResource Center, Tsukuba, Ibaraki, 305-0074, Japan). […] The cells were routinely screened for the presence of mycoplasma (MycoAlert, Cambrex Bio Science, Baltimore, Md.). For growth inhibition assays, cells were plated and allowed to proliferate for 24 hours. […] Cell viability was assayed using the Cell Titer-Glo reagent (Promega Corp., Madison, Wis.).

[2] = system: SK-N-AS (neuroblastoma) tumors; assay: tumor xenograft anti-tumor efficacy; type: in vivo, nu/nu CD-1 mice
Text: (§1) Animals: Female nu/nu CD-1 mice (6-8 weeks, 22-25 g) were purchased from Charles River Laboratories (Wilmington, Mass.) and maintained in an AAALAC-accredited facility at OSI Pharmaceuticals as described previously (12).
(§2) In vivo anti-tumor efficacy studies: Cells were harvested and implanted s.c. in the right flank of nu/nu CD-1 mice as described previously (12). Tumors were allowed to establish to 200±50 mm^3 in size before randomization into various treatment groups. […] Tumor volumes were determined from caliper measurements using the formula V=(length×width^2)/2. Tumor sizes and body weights were measured twice weekly. Tumor growth inhibition (TGI) was determined at different time points by the following formula: % TGI={1−[(Tt/T0)/(Ct/C0)]/1[C0/Ct}×100, where Tt=median tumor volume of treated at time t, T0=median tumor volume of treated at time 0, Ct=median tumor volume of control at time t, and C0=median tumor volume of control at time 0.

GEO (CRC) tumors = assay: tumor xenograft anti-tumor efficacy; type: in vivo, nu/nu CD-1 mice; conditions: OSI-906 50 mg/kg once-daily for 14 days; MAB391 every three days for a total of 5 doses
Text: as §1, §2

phospho-AKT [3] = assay: in vivo pharmacodynamic analysis, GEO tumors; set-up: species or system nu/nu CD-1 mice; conditions: GEO model
Experimental: Tumor samples were collected at specified time points and snap frozen in liquid nitrogen. Tumor lysates were prepared by homogenizing samples in Precellys 24 homogenizer (MO Bio Laboratories, Inc., CA) with tumor lysis buffer (1% Triton X-100, 10% glycerol, 50 mM HEPES (ph 7.4), 150 mM NaCl, 1.5 mM MgCl2, 1 mM EDTA supplemented with fresh protease inhibitor cocktail (Sigma, Mo.), phosphatase inhibitor cocktail (Sigma, Mo.), 10 mM NaF and 1 mM sodium orthovanadate). Tissue homogenates were clarified by centrifugation at 14,000 g for 5 min at 4° C. and supernatants were then analyzed by Western blot or phospho-RTK array as indicated.

phospho-IGF-1R [4] = molecular target: T1, phospho-IGF-1R (Homo sapiens, UniProt P08069); assay: receptor phosphorylation in MDAH-2774 cells; type: cell-based; set-up: endogenous in cells; host or cells: human tumour cell lines (MDAH-2774); conditions: MDAH-2774 cells alone or with insulin, IGF-1 or IGF-2; OSI-906 3 μM or MAB391 3 μg/ml
Experimental: (§3) Preparation of Protein Lysates and Western Blotting: Lysates for Western blotting were prepared as previously described (44). Antibodies included: IGF-1R (Santa Cruz), IR (Santa Cruz), phospho-p42/p44 (Cell Signaling Technologies), phospho-Akt (S473) (Cell Signaling Technologies), phospho-Akt (T308) (Cell Signaling Technologies), phosho-S6 (235/236) (Cell Signaling Technologies), phosphor-PRAS40 (Cell Signaling Technologies), and phosphor-IRS-1-Y612 (Biosource).
(§4) Analysis of RTK phosphorylation via a proteome array: Proteome Profiler arrays containing capture antibodies for 42 RTKs were from R&D systems (RTK Proteome Profile; R&D Systems, Minneapolis, Minn.) and processed according to manufacturer's protocol. pIGF-1R and pIR were determined by RTK capture array. Proteome profiler arrays housed 42 different RTKs. RTKs included on the array include: HER1, HER2, HER3, HER4, FGFR1, FGFR2a, FGFR3, FGFR4, IR, IGF-1R, Axl, Dtk, Mer, HGFR, MSPR, PDGFRα, PDGFRβ, SCFR, Flt-3, M-CSFR, c-Ret, ROR1, ROR2, Tie-1, Tie-2, TrkA, TrkB, TrkC, VEGFR1, VEGFR2, VEGFR3, MuSK, EphA1, EphA2, EphA3, EphA4, EphA6, EphA7, EphB1, EphB2, EphB4, EphB6. This array was used as an RTK capture assay for determining pIGF-1R and pIR levels. Capture antibodies specific to each RTK are used to bind RTKs in tumor cell extracts. […]

phospho-IRS1^Y612 = assay: Western blot, phospho-IRS1 in tumor cell lines; type: cell-based, human; conditions: A673, H322, and H295R tumor cell lines; OSI-906 3 μM or MAB391 3 μg/ml
Experimental: as §3

[5] = system: phospho-AKT or phospho-ERK; assay: Western blot, downstream AKT and ERK signaling in tumor cell lines; type: cell-based, human; conditions: OSI-906 3 μM or MAB391 3 μg/ml, 16 hour
Experimental: as §3

phospho-AKT [6] = assay: phospho-AKT in HT-29 CRC cells with insulin; type: cell-based, human; conditions: HT-29 cells, basal or 5 or 50 μIU/mL insulin
Experimental: as §3

phospho-IGF-1R [7] = molecular target: T1, phospho-IGF-1R; assay: receptor phosphorylation in HT-29 CRC cells with insulin; type: cell-based; set-up: endogenous in cells; host or cells: human tumour cell lines (panel of nine; HT-29; MDAH-2774; H322, SK-N-AS, H295R, A673); conditions: HT-29 cells treated with 5 or 50 μIU/mL insulin; OSI-906 3 μM or MAB391 3 μg/ml, 16 hours
Experimental: as §3, §4

phospho-IGF-1R [8] = molecular target: T1, phospho-IGF-1R; assay: RTK capture array, panel of nine tumor cell lines; type: cell-based; set-up: endogenous in cells; host or cells: human tumour cell lines (panel of nine; HT-29; MDAH-2774; H322, SK-N-AS, H295R, A673); conditions: OSI-906 3 μM or MAB391 3 μg/mL; 16 hours; each cell line tested
Experimental: Analysis of RTK phosphorylation via a proteome array: Proteome Profiler arrays containing capture antibodies for 42 RTKs were from R&D systems (RTK Proteome Profile; R&D Systems, Minneapolis, Minn.) and processed according to manufacturer's protocol. pIGF-1R and pIR were determined by RTK capture array. Proteome profiler arrays housed 42 different RTKs. RTKs included on the array include: HER1, HER2, HER3, HER4, FGFR1, FGFR2a, FGFR3, FGFR4, IR, IGF-1R, Axl, Dtk, Mer, HGFR, MSPR, PDGFRα, PDGFRβ, SCFR, Flt-3, M-CSFR, c-Ret, ROR1, ROR2, Tie-1, Tie-2, TrkA, TrkB, TrkC, VEGFR1, VEGFR2, VEGFR3, MuSK, EphA1, EphA2, EphA3, EphA4, EphA6, EphA7, EphB1, EphB2, EphB4, EphB6. This array was used as an RTK capture assay for determining pIGF-1R and pIR levels. Capture antibodies specific to each RTK are used to bind RTKs in tumor cell extracts. An HRP-conjugated pan anti-phospho-tyrosine antibody is used to specifically detect phosphorylated RTKs.

pERK = pERK in doxorubicin-treated A673 tumor cells; type: cell-based, human
IR and IGF-1R = assay: receptor phosphorylation in doxorubicin-treated A673 tumor cells; type: cell-based, human
phospho-PRAS40 = assay: Western blot, phospho-PRAS40 in H295R cells; type: cell-based, human
Experimental: as §3

Colo205 tumors = assay: tumor xenograft anti-tumor efficacy; set-up: species or system nu/nu CD-1 mice; conditions: after treatment with OSI-906 in vivo for 10-14 days
Text: as §1, §2

BxPC3 tumors = assay: tumor xenograft anti-tumor efficacy; set-up: species or system nu/nu CD-1 mice; conditions: after treatment with OSI-906 in vivo for 10-14 days
Text: as §1, §2

H460 tumors = assay: tumor xenograft anti-tumor efficacy; set-up: species or system nu/nu CD-1 mice; conditions: after treatment with OSI-906 in vivo for 10-14 days
Text: as §1, §2

H295R tumors = assay: tumor xenograft anti-tumor efficacy; set-up: species or system nu/nu CD-1 mice; conditions: after treatment with OSI-906 in vivo for 10-14 days
Text: as §1, §2

FaDu tumors = assay: tumor xenograft anti-tumor efficacy; set-up: species or system nu/nu CD-1 mice; conditions: after treatment with OSI-906 in vivo for 10-14 days
Text: as §1, §2

[9] = system: broad panel (n=116) of additional RTKs and other protein kinases; conditions: at 1 μM; cited from earlier work
[10] = A673 tumor cells, doxorubicin 300 nM

T1 sequence (P08069 31-1367): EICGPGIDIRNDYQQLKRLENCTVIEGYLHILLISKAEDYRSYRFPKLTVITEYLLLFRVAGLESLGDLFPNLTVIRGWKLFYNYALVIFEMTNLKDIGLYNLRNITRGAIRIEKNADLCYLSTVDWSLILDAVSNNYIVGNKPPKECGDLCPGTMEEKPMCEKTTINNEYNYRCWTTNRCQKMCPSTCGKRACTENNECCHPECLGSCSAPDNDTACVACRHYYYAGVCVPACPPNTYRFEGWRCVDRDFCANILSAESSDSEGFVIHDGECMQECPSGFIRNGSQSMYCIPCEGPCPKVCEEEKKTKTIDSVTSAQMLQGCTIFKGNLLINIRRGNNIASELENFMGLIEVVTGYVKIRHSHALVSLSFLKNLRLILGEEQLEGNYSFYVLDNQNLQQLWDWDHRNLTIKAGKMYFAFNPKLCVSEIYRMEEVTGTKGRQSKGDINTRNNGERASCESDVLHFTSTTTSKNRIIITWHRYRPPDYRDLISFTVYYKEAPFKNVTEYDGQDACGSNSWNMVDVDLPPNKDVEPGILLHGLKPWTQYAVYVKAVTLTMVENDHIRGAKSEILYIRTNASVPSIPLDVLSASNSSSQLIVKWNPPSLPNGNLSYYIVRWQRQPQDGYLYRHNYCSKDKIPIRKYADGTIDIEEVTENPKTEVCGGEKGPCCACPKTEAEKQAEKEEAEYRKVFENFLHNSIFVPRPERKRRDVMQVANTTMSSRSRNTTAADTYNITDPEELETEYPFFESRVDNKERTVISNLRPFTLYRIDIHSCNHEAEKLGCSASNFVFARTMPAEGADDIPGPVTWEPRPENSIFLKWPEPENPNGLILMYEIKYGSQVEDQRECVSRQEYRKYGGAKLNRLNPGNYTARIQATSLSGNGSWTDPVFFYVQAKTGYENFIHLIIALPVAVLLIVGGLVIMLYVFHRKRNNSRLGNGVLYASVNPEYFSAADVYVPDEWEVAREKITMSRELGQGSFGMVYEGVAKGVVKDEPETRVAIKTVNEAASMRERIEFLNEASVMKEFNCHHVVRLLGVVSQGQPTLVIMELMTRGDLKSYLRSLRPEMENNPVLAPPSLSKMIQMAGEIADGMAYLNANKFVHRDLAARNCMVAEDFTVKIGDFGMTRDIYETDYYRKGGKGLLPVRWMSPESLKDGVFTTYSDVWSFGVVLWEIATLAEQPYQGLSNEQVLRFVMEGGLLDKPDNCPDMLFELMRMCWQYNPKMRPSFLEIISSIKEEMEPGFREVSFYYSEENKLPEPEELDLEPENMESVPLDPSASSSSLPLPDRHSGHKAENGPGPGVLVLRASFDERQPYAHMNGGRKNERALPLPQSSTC

Compound: C[C@]1(O)C[C@@H](c2nc(-c3ccc4ccc(-c5ccccc5)nc4c3)c3c(N)nccn32)C1 [OSI-906, cis-3-[8-amino-1-(2-phenyl-quinolin-7-yl)-imidazo[1,5-a]pyrazin-3-yl]-1-methyl-cyclobutanol]
- sensitivity to OSI-906 in vitro [1]: sensitive
- mean tumor growth inhibition (TGI) over the dosing period ([2]; OSI-906 50 mg/kg once-daily for 14 days, MAB391 1 mg every three days intraperitoneally): 100%
- % TGI ([2]; after treatment with OSI-906 in vivo for 10-14 days): 71%
- mean TGI over the dosing period (GEO (CRC) tumors): 79%
- effect on phospho-AKT in tumors (phospho-AKT [3]): decreased phospho-AKT in tumors
- inhibition of IGF-1R phosphorylation (phospho-IGF-1R [4]): fully inhibited
- inhibition of phosphorylation of IRS1^Y612 (phospho-IRS1^Y612): strongly inhibited
- decrease of phospho-AKT or phospho-ERK levels ([5]; H322, H295R, and A673 cells): to a greater extent than did MAB391
- effect on phospho-AKT levels ([5]; SK-N-AS (neuroblastoma) tumor cells): decrease phospho-AKT levels
- inhibition of phospho-AKT (phospho-AKT [6]): fully inhibited
- inhibition of phospho-IGF-1R (phospho-IGF-1R [7]): fully inhibited
- decrease of phospho-IGF-1R (phospho-IGF-1R [8]): > 90%
- inhibition of pERK (pERK; A673 tumor cells treated with doxorubicin (300 nM), compared with MAB391): greater inhibition of pERK
- inhibition of IR and IGF-1R phosphorylation (IR and IGF-1R; A673 tumor cells treated with doxorubicin (300 nM)): inhibits both IR and IGF-1R
- effect on phospho-PRAS40 (phospho-PRAS40): decreased phospho-PRAS40
- % TGI (Colo205 tumors): 90%
- % TGI (BxPC3 tumors): 56%
- % TGI (H460 tumors): < 30%
- % TGI (H295R tumors): 85%
- % TGI (FaDu tumors): < 30%
- inhibition [9]: < 50%

Compound: COc1cccc2c1C(=O)c1c(O)c3c(c(O)c1C2=O)C[C@@](O)(C(=O)CO)C[C@@H]3O[C@H]1C[C@H](N)[C@H](O)[C@H](C)O1 [doxorubicin, reference compound]
- downstream signaling at the level of pERK following treatment (pERK; [10]): increased phosphorylation of downstream signaling at the level of pERK
- phosphorylation of IR and IGF-1R following treatment (IR and IGF-1R; [10]): upregulated phosphorylation of both IR and IGF-1R
